In the supplement of paper PMC12463676, “Small-molecule dissolution of stress granules by redox modulation benefits ALS models” (Nature Chemical Biology, 2025):

Experiments:
[1] = compound: O=[As]([O-])(O)O.[K+] [potassium arsenate]; assay: thermal stability z-score vs DMSO; higher = more thermally stabilized by treatment; settings: HeLa; arsenate concentration 1 mM
Description: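 Cellular thermal proteome profiling in HeLa cells treated with 1 mM arsenate for 1 h (DMSO pretreatment), heated to ten temperatures (37-66.3 °C). Soluble protein was quantified by TMT mass spectrometry relative to DMSO controls; the thermal stability score was transformed to a z-score; mean of n = 3 experiments.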

[2] = compound: NC(=O)CCCCC1CCSS1 [lipoamide]; assay: as above; settings: HeLa, lipoamide concentration 100 µM
Description: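 Cellular thermal proteome profiling in HeLa cells. Cells were treated with 100 µM lipoamide for 1 h, with or without 1 mM arsenate for a further 1 h, then heated to ten temperatures (37-66.3 °C), and soluble protein was quantified by TMT mass spectrometry relative to 0.1% DMSO controls. The thermal stability score (sum of log2 fold changes minus the abundance score) was transformed to a z-score; mean of n = 3 experiments.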

[3] = arsenate co-treatment: 1 mM arsenate 1 h
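Further: each temperature applied for 3 min, abundance score taken as mean log2 fold change at the two lowest temperatures, z-score obtained by mean subtraction and division by SD.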

UniProt Q03169, sequence (Q03169 whole entry): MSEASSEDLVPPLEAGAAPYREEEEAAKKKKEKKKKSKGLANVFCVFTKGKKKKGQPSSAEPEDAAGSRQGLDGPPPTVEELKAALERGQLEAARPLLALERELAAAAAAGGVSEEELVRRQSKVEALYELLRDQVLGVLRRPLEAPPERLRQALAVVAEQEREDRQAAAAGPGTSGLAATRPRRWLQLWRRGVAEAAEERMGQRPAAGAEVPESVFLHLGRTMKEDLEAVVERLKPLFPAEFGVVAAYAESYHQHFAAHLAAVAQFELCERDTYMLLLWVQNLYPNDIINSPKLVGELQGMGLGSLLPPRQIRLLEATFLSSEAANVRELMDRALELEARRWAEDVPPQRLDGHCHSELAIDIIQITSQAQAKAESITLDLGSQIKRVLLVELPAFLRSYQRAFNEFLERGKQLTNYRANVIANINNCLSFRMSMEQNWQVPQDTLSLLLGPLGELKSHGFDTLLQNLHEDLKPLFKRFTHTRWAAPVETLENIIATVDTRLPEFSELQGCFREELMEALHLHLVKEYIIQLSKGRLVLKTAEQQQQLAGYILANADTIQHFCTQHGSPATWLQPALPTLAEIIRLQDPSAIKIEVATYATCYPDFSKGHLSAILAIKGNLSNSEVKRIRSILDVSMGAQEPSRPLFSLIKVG
UniProt Q8TCX1, sequence (Q8TCX1 whole entry): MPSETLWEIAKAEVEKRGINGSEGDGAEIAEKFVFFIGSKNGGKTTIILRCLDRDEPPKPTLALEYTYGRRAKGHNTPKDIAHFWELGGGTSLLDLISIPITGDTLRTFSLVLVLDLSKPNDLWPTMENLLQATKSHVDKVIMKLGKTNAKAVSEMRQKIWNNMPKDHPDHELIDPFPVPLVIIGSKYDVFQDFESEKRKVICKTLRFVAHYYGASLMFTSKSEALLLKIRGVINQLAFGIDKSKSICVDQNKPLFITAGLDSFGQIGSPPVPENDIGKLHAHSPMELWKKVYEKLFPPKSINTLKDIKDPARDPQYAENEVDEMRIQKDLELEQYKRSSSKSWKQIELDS
UniProt Q8IUX1, sequence (Q8IUX1 whole entry): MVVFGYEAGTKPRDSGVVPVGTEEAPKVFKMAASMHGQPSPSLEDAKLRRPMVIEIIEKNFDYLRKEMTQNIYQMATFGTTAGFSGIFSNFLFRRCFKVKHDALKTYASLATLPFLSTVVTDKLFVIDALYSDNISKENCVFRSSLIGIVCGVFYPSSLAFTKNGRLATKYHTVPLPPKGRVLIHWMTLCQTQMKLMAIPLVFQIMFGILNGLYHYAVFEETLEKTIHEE
UniProt O75152, sequence (O75152 whole entry): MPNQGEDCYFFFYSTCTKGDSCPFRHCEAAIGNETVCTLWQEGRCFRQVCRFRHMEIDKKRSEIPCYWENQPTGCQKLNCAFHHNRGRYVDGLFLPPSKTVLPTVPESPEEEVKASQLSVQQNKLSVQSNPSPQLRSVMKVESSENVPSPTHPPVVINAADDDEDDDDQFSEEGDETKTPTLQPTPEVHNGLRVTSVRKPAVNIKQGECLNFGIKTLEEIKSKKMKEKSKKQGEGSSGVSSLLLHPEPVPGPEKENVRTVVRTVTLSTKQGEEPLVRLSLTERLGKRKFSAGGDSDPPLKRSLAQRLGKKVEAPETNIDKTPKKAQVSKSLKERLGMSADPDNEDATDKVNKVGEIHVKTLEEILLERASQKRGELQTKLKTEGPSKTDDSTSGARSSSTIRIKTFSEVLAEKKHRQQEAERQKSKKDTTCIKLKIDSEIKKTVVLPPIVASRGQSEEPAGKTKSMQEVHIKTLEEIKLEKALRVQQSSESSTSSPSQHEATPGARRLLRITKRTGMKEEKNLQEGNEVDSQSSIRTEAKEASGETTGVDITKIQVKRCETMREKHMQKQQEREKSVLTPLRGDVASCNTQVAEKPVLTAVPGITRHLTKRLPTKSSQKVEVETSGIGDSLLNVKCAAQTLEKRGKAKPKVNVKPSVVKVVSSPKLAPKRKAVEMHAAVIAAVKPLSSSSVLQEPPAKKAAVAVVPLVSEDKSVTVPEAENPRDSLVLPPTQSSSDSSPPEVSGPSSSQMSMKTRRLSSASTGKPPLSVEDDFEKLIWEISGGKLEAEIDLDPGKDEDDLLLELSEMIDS
UniProt Q9UJX5, sequence (Q9UJX5 whole entry): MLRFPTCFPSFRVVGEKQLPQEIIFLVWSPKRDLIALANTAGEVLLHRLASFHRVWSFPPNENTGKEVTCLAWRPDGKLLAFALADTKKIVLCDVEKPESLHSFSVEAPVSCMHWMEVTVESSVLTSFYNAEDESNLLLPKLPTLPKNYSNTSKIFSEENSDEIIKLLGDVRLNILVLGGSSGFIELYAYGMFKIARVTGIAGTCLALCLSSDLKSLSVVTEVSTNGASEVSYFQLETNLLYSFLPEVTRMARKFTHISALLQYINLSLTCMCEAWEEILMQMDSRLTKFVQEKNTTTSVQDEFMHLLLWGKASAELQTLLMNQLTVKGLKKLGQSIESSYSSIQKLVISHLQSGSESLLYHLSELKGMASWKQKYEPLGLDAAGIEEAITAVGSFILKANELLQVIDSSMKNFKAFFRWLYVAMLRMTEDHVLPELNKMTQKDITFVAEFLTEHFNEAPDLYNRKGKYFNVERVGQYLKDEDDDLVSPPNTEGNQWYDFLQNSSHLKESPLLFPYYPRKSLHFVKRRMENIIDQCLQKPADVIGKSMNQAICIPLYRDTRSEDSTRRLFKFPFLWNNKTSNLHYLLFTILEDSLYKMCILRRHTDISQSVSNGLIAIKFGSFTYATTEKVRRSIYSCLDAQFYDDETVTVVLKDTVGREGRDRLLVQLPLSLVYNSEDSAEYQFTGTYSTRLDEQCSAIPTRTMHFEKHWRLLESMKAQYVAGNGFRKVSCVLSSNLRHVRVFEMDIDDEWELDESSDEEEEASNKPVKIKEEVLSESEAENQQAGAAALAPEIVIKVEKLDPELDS
UniProt P62995, sequence (P62995 whole entry): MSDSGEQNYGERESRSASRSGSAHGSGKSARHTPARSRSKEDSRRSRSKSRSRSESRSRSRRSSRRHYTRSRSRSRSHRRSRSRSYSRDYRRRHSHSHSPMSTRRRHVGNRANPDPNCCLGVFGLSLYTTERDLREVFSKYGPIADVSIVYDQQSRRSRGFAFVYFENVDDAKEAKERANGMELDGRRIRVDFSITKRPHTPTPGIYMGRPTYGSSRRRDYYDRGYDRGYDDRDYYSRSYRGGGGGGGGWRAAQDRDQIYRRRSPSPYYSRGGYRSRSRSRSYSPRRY
UniProt Q8N3X1, sequence (Q8N3X1 whole entry): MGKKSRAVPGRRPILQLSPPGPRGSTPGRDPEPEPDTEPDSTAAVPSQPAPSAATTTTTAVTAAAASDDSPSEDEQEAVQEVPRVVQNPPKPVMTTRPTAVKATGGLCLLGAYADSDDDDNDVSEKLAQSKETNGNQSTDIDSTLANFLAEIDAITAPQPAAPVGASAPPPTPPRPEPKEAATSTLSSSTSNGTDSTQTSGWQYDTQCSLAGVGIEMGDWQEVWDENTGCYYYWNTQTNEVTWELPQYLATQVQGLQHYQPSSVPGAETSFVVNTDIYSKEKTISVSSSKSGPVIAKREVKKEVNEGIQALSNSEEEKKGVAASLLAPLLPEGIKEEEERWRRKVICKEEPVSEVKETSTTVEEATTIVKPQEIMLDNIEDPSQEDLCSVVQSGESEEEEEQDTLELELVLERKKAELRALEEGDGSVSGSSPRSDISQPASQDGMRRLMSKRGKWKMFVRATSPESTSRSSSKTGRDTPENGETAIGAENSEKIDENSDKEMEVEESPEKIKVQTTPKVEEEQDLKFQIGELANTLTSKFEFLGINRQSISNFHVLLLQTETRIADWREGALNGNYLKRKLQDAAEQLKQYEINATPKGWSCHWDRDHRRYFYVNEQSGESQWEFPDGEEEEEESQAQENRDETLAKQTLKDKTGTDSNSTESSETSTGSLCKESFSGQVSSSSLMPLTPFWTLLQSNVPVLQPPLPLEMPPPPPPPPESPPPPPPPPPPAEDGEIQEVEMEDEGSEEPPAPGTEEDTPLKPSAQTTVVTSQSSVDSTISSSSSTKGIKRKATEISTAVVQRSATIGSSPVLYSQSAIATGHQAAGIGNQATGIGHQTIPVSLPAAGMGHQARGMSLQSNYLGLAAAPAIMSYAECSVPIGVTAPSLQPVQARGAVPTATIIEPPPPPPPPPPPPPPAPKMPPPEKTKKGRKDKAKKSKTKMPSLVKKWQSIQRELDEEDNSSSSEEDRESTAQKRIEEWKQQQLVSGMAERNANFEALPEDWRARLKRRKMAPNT
UniProt P35269, sequence (P35269 whole entry): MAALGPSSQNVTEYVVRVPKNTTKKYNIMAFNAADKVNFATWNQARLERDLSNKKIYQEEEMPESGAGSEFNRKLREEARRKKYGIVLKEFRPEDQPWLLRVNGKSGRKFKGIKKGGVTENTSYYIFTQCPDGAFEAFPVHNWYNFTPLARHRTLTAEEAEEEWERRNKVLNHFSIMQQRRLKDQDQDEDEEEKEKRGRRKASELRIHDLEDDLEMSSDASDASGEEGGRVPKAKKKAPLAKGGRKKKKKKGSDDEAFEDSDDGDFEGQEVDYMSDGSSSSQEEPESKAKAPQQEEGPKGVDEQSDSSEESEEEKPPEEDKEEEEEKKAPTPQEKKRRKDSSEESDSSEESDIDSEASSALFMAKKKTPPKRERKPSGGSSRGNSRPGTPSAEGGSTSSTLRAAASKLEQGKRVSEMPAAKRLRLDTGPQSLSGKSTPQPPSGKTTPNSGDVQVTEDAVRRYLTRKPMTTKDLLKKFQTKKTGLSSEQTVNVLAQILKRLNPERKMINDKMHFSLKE
UniProt P54105, sequence (P54105 whole entry): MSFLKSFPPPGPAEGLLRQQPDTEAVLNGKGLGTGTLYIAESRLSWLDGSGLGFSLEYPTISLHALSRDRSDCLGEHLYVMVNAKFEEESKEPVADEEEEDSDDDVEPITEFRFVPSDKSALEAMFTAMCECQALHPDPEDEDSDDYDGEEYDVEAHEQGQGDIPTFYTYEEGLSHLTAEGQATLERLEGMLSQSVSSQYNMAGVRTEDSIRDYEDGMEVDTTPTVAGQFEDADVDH

Target	thermal stability z-score [1]	thermal stability z-score [2, 3]	thermal stability z-score ([2]; arsenate co-treatment: none)
DDX17 (UniProt Q92841)	-0.776	0.121	0.424
ABHD17B (UniProt Q5VST6)	-0.595	-0.119	0.135
EIF3M (UniProt Q7L2H7)	0.304	0.136	-0.372
RAPH1 (UniProt Q70E73)	0.0198	-0.113	-0.22
FNBP4 (UniProt Q8N3X1)	-0.51	0.826	1.2
KTN1 (UniProt Q86UP2)	0.294	0.265	0.505
TPCN1 (UniProt Q9ULQ1)	-0.538	0.0393	-0.00808
ZHX1 (UniProt Q9UKY1)	-0.0668	0.0297	0.122
TRA2B (UniProt P62995)	-0.649	2.37	-0.56
H2AFY (UniProt O75367)	0.327	0.112	0.0481
AHSA1 (UniProt O95433)	0.423	0.722	0.671
TMEM126B (UniProt Q8IUX1)	1.18	1.31	1.36
PRC1 (UniProt O43663)	-0.601	-0.144	-0.106
STIM1 (UniProt Q13586)	0.0811	-1.28	-1.03
FOLR1 (UniProt P15328)	0.366	0.588	0.376
MBD3 (UniProt O95983)	-0.483	0.379	0.252
ERBB2 (UniProt P04626)	0.0442	0.166	0.0799
COPS4 (UniProt Q9BT78)	-0.453	0.298	-0.0548
KATNAL1 (UniProt Q9BW62)	-0.0764	0.798	-0.886
RPRD1B (UniProt Q9NQG5)	0.808	0.793	0.977
UBXN6 (UniProt Q9BZV1)	-0.12	-0.186	-0.134
MCM2 (UniProt P49736)	-0.389	-0.75	-0.391
GTF2F1 (UniProt P35269)	-0.307	-0.208	-0.0526
CTPS1 (UniProt P17812)	-0.228	-0.159	-0.286
TMEM57 (UniProt Q8N5G2)	-0.249	0.13	-0.0957
S100A6 (UniProt P06703)	1.15	1.78	0.967
GRB2 (UniProt P62993)	0.0852	0.496	0.364
GLYR1 (UniProt Q49A26)	-0.145	0.0933	-0.0315

Target	thermal stability z-score [1]	thermal stability z-score [2, 3]	thermal stability z-score ([2]; arsenate co-treatment: none)
POLR1B (UniProt Q9H9Y6)	-1.91	0.138	-0.017
INADL (UniProt Q8NI35)	-0.0383	-0.13	-0.0923
RIOK3 (UniProt O14730)	0.507	-0.0448	-0.0085
DYNC2LI1 (UniProt Q8TCX1)	0.202	0.0696	-0.0585
ANAPC4 (UniProt Q9UJX5)	-1.3	-0.529	-0.278
A0A087WZ62	0.358	0.00979	0.224
ZC3H11A (UniProt O75152)	-0.845	0.0837	-0.0442
UniProt E9PSI1	-0.346	-0.0572	-0.622
SLC25A6 (UniProt P12236)	0.433	0.809	0.762
AEBP2 (UniProt Q6ZN18)	-0.00304	-0.0576	-0.195
ALDH3A2 (UniProt P51648)	0.0815	1.63	1.32
VIMP (UniProt Q9BQE4)	-0.948	0.458	0.457
NOP9 (UniProt Q86U38)	-0.372	0.182	0.121
TNFAIP2 (UniProt Q03169)	0.97	0.331	0.638
CLNS1A (UniProt P54105)	-1.75	0.733	0.695
NAP1L4 (UniProt Q99733)	-0.384	-0.0111	0.113
CALU (UniProt O43852)	0.255	0.0232	0.235
UBR5 (UniProt O95071)	1.13	-0.165	-0.0498
HSPB11 (UniProt Q9Y547)	-0.48	-0.309	0.124
TBX3 (UniProt O15119)	0.206	0.163	-0.0268
GFPT2 (UniProt O94808)	-0.593	0.344	-0.0258
ABCC2 (UniProt Q92887)	-0.256	1.06	1.14
FBXO21 (UniProt O94952)	0.0266	-0.226	-1.07
OXNAD1 (UniProt Q96HP4)	-0.691	0.221	0.451
GBF1 (UniProt Q92538)	0.452	-0.598	-0.0839
RRN3 (UniProt Q9NYV6)	-2.42	-0.321	-0.104
GDI1 (UniProt P31150)	-0.353	0.00835	-0.013
